In patent US20030118553A1, “Vector constructs for gene-therapy mediated radionuclide therapy of undifferentiated and medullary thyroid carcinomas and non-thyroidal tumours and metastases mediated thereof” (priority 2000, published 2003):
Where two headings read alike, the source gives them in different places.

Columns and labels:
[1] = tested on: tumor cells of a thyroid carcinoma cell line (K1) transfected with hNIS
Procedure: After a tumor growth for 3 weeks scintigraphic pictures were taken ventrally by means of scintiscanning (gamma camera ZLC370, Siemens) 3 and 24 h following the injection of 2 MBq I-123, 10 MBq Tc-99m-pertechnetate and 0.4 MBq At-211 (RVL=right-ventral-left).
The cDNAs of the therapeutic genes are amplified from human thyreocyte mRNA after reverse transcription by subsequent PCR with gene-specific primers, and the fragments thus obtained are subcloned in a cloning vector (e.g., pCRblunt, Invitrogen) in E. coli (K12 derivative). For this purpose, overlapping cDNA segments of the single genes are used, the fragments allowing the generation of full-length cDNAs due to their common restriction enzyme cleavage sites. The cDNAs are cloned into a vector for constitutive expression in mammalian cells (e.g., in pCIneo under control of the CMV promoter, Promega). The expression vectors with integrated cDNA (FIG. 7A, example) are used for transient transfection of different tumor cell lines (Fugen6, Roche) and for the generation of stably transfected cell lines by antibiotic selection (e.g., G418 for pCIneo). Radionuclide uptake measurements ([I-125], [At-211], [Tc-99m], [Re-188]) with cell cultures (FIGS. 5 and 6) are performed according to the method of Weiss et al. 1984. To establish an animal model stably transfected tumor cell lines and the corresponding control cells, respectively, are subcutaneously injected into nude NMRI mice (nu/nu). After tumor growth in the course of 3-4 weeks and application of different radionuclides (i. a., [I-123], [At-211], [Tc-99m]) sequential scintiscans are taken with a gamma camera and organ distribution over region of interest (ROI) analyses determined (FIG. 4).

[2] = tested on: tumor cell lines stably transfected with the NIS gene (K1, B-CPAP, 8505-C, SW480, DBTRG); test: In vitro radionuclide uptake in tumor cell lines stably transfected with the NIS gene; type: cell-based; details: for radionuclide uptake in control cells: corresponding control cells, not NIS-transfected; for radionuclide uptake in tumor cell lines transfected with NIS: stably transfected K1, B-CPAP, 8505-C, SW480, DBTRG
Source text: FIG. 5A depicts in vitro results of the radionuclide uptake of I-125, Tc-99m-pertechnetate, and At-211 in tumor cell lines stably transfected with the NIS gene as compared to the corresponding control cells: K1 papillary thyroid carcinoma ECACC #92030501, B-CPAP papillary thyroid carcinoma DSMZ #ACC273, 8505-C anaplastic thyroid carcinoma DSMZ #ACC219, SW480 colon carcinoma DSMZ #ACC313, DBTRG glioblastoma DSMZ #ACC359.

[3] = tested on: stably transfected tumor cell lines (K1-NIS, SW480-NIS); test: At-211 transport in vitro: Na+ dependency and perchlorate inhibition; type: cell-based
Source text: FIG. 6A depicts the dependency upon Na^+ of the At-211 transport in vitro in stably transfected tumor cell lines (K1-NIS, SW480-NIS), wherein NaCl has been iso-osmotically replaced by choline chloride.

[4] = tested on: transiently transfected tumor cell lines; test: I-125 uptake in transiently NIS-transfected tumor cell lines; type: cell-based; details: also follicular thyroid carcinoma, HepG2, LN-Cap, A498, SK-Mel30, CCF-STTG1, TT
Source text: In FIG. 5B the uptake of I-125 is additionally shown depending on a perchlorate blockage in transiently transfected tumor cell lines. […] The differences in the iodide uptake rates in different cell lines transfected with NIS are caused by the variable transfection efficiency of the distinct cell lines with the method used.

[5] = tested on: anaplastic thyroid cells transfected with NIS cDNA; details: NIS-transfected tumor cells implanted into rats; cited from earlier work
[6] = scintigraphically, K1-NIS tumor, NMRI nude mouse, compared to muscle tissue
[7] = scintiscans 3 and 24 h after injection, K1-wt control tumor not shown

Structure (SMILES): [At] [At-211]
- enrichment of the tracer in the tumor transfected with NIS ([1]; mouse, in vivo): significant enrichment
- higher uptake in the NIS tumor as compared to muscle tissue ([1]; mouse, in vivo): 10 fold
- radionuclide uptake in control cells [2]: no uptake
- radionuclide uptake in tumor cell lines transfected with NIS [2]: highly significant uptake
- dependency upon Na+ of the transport ([3]; NaCl iso-osmotically replaced by choline chloride, K1-NIS, SW480-NIS): clear-cut dependency upon Na^+

Structure (SMILES): [123IH] [I-123]
- higher uptake in the NIS tumor as compared to muscle tissue [1, 6]: 60 fold
- enrichment of the tracer in the tumor transfected with NIS [1, 7]: significant enrichment

Structure (SMILES): [125IH] [I-125]
- radionuclide uptake in control cells [2]: no uptake
- radionuclide uptake in tumor cell lines transfected with NIS [2]: highly significant uptake
- iodide uptake in transiently transfected tumor cell lines [4]: significant iodide uptake

Structure (SMILES): [131IH] [I-131]
- maximum level after [5]: 90 min

Structure (SMILES): [O]=[99Tc](=[O])(=[O])[O-] [Tc-99m-pertechnetate]
- higher uptake in the NIS tumor as compared to muscle tissue [1, 6]: 15 fold
- enrichment of the tracer in the tumor transfected with NIS [1, 7]: significant enrichment
- radionuclide uptake in control cells [2]: no uptake
- radionuclide uptake in tumor cell lines transfected with NIS [2]: highly significant uptake

Structure (SMILES): [O-][Cl+3]([O-])([O-])O [perchlorate]
- inhibition of the astate transport ([3]; small perchlorate concentrations): clear inhibition
